Blank lines part the entries; values can stand above or below the compound they belong to.
Experiments:
[1] = Citalopram serum concentration-to-dose
[2] = Escitalopram serum concentration-to-dose; conditions: patients aged 80 years; combined linear and square age model
[3] = Sertraline serum concentration-to-dose; assay type: in vivo, patients; conditions: concomitant PPI vs control group without PPI
[4] = with omeprazole, cited from earlier work

SMILES: Cc1c(OCC(F)(F)F)ccnc1C[S+]([O-])c1nc2ccccc2[nH]1 (stereo not drawn) [Lansoprazole, lansoprazole]
Expected Sertraline C/D Ratio Percent Change [3]: no significant differences

SMILES: COc1ccc2[nH]c([S+]([O-])Cc3ncc(C)c(OC)c3C)nc2c1 (stereo not drawn) [Omeprazole, omeprazole]
increase in the concentration of R-citalopram ([4]; 9 healthy subjects): 25% | increase in the concentration of S-citalopram ([4]; 9 healthy subjects): ~2 fold | mean increase in the plasma concentration of escitalopram ([4]; healthy volunteers): ~100% | Expected Sertraline C/D Ratio Percent Change [3]: no significant differences

SMILES: COc1ccnc(C[S+]([O-])c2nc3ccc(OC(F)F)cc3[nH]2)c1OC (stereo not drawn) [Pantoprazole, pantoprazole]
Expected Citalopram C/D Ratio Percent Change ([1]; concomitant PPI vs control group without PPI): No significant effect | Expected Sertraline C/D Ratio Percent Change [3]: no significant differences

The next lines start with the values.

Citalopram C/D ratio, age effect ([1]; patients aged 80 years, combined linear and square age model): roughly doubled
SMILES: CN(C)CCCC1(c2ccc(F)cc2)OCc2cc(C#N)ccc21 (stereo not drawn) [Citalopram, citalopram]

Escitalopram C/D ratio, age effect [2]: roughly doubled
SMILES: CN(C)CCC[C@@]1(c2ccc(F)cc2)OCc2cc(C#N)ccc21 [Escitalopram, escitalopram]

From PMC4297217 (Therapeutic Drug Monitoring, 2015)
